# Legend:
# Type in all cases: in vivo
# [1] = system: velvetleaf (Abutilon theophrasti); experiment: Test G Post-Emergence Protocol; conditions: Abutilon theophrasti, post-emergence, 312 h; for pest or weed control at 15.625 g/ha: 15.625 g ai/ha, evaluated after 13 days (100=total damage to plant; 0=no damage to plant), read-out: Velvetleaf damage rating; for pest or weed control at 62.5 g/ha: 62.5 g ai/ha, read-out: Velvetleaf damage rating (100=total damage to plant; 0=no damage to plant); for pest or weed control at 62.5 g/ha / pest or weed control at 250 g/ha: evaluated after 13 days; for pest or weed control at 250 g/ha: 250 g ai/ha, read-out: damage to plant, Velvetleaf (100=total damage to plant; 0=no damage to plant)
# Outline: (§1)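 Seedlings grown 8 days in soil in a glasshouse (24/16 °C day/night, 14 h light, 65% humidity) were sprayed post-emergence with compound in acetone/water 50:50 plus 0.5% Tween 20 at 15.625, 62.5 or 250 g/ha. Damage was scored after 13 days on a 0–100 scale (100 = total damage).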
# [2] = system: giant foxtail (Setaria faberi); experiment: Test G Post-Emergence Protocol; conditions: Setaria faberi, post-emergence, 312 h; for pest or weed control at 15.625 g/ha: 15.625 g ai/ha, evaluated after 13 days (100=total damage to plant; 0=no damage to plant), read-out: Foxtail, Giant damage rating; for pest or weed control at 62.5 g/ha: 62.5 g ai/ha, read-out: Foxtail, Giant damage rating (100=total damage to plant; 0=no damage to plant); for pest or weed control at 62.5 g/ha / pest or weed control at 250 g/ha: evaluated after 13 days; for pest or weed control at 250 g/ha: 250 g ai/ha, read-out: damage to plant, Foxtail, Giant (100=total damage to plant; 0=no damage to plant)
# Outline: as §1
# corn (Zea mays) [3] = experiment: Test G Post-Emergence Protocol; conditions: Zea mays, post-emergence, 312 h; for plant injury at 15.625 g/ha: 15.625 g ai/ha, evaluated after 13 days (100=total damage to plant; 0=no damage to plant), read-out: Corn damage rating; for plant injury at 62.5 g/ha: 62.5 g ai/ha, read-out: Corn damage rating (100=total damage to plant; 0=no damage to plant); for plant injury at 62.5 g/ha / plant injury at 250 g/ha: evaluated after 13 days; for plant injury at 250 g/ha: 250 g ai/ha, read-out: damage to plant, Corn (100=total damage to plant; 0=no damage to plant)
# Outline: as §1
# [4] = system: redroot pigweed (Amaranthus retroflexus); experiment: Test G Post-Emergence Protocol; conditions: Amaranthus retroflexus, post-emergence, 312 h; for pest or weed control at 15.625 g/ha: 15.625 g ai/ha, evaluated after 13 days (100=total damage to plant; 0=no damage to plant), read-out: Pigweed, Redroot damage rating; for pest or weed control at 62.5 g/ha: 62.5 g ai/ha, read-out: Pigweed, Redroot damage rating (100=total damage to plant; 0=no damage to plant); for pest or weed control at 62.5 g/ha / pest or weed control at 250 g/ha: evaluated after 13 days; for pest or weed control at 250 g/ha: 250 g ai/ha, read-out: damage to plant, Pigweed, Redroot (100=total damage to plant; 0=no damage to plant)
# Outline: as §1
# [5] = system: barnyardgrass (Echinochloa crus-galli); experiment: Test G Post-Emergence Protocol; conditions: Echinochloa crus-galli, post-emergence, 312 h; for pest or weed control at 15.625 g/ha: 15.625 g ai/ha, evaluated after 13 days (100=total damage to plant; 0=no damage to plant), read-out: Barnyardgrass damage rating; for pest or weed control at 62.5 g/ha: 62.5 g ai/ha, read-out: Barnyardgrass damage rating (100=total damage to plant; 0=no damage to plant); for pest or weed control at 62.5 g/ha / pest or weed control at 250 g/ha: evaluated after 13 days; for pest or weed control at 250 g/ha: 250 g ai/ha, read-out: damage to plant, Barnyardgrass (100=total damage to plant; 0=no damage to plant)
# Outline: as §1
# [6] = system: ivy-leaved morning glory (Ipomoea hederacea); experiment: Test G Post-Emergence Protocol; conditions: Ipomoea, post-emergence, 312 h; for pest or weed control at 15.625 g/ha: 15.625 g ai/ha, evaluated after 13 days (100=total damage to plant; 0=no damage to plant), read-out: Morningglory, Ivy-leaved damage rating; for pest or weed control at 62.5 g/ha: 62.5 g ai/ha, read-out: Morningglory, Ivy-leaved damage rating (100=total damage to plant; 0=no damage to plant); for pest or weed control at 62.5 g/ha / pest or weed control at 250 g/ha: evaluated after 13 days; for pest or weed control at 250 g/ha: 250 g ai/ha, read-out: damage to plant, Morningglory, Ivy-leaved (100=total damage to plant; 0=no damage to plant)
# Outline: as §1
# [7] = system: velvetleaf (Abutilon theophrasti); experiment: Test G Pre-Emergence Protocol; conditions: Abutilon theophrasti, pre-emergence, 312 h, evaluated after 13 days; for pest or weed control at 15.625 g/ha: 15.625 g ai/ha; for pest or weed control at 15.625 g/ha / pest or weed control at 250 g/ha: read-out: Velvetleaf damage rating (100=total damage to plant; 0=no damage to plant); for pest or weed control at 62.5 g/ha: 62.5 g ai/ha, 100=total damage to plant, 0=no damage to plant, read-out: plant damage rating, Velvetleaf; for pest or weed control at 250 g/ha: 250 g ai/ha
# Outline: (§2)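 One day after sowing, pots are treated with a spray of test compound formulated in acetone/water 50:50 plus 0.5% Tween 20, giving 15.625, 62.5 or 250 g/ha. Evaluation on a 0–100 damage scale follows 13 days of glasshouse growth.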
# [8] = system: giant foxtail (Setaria faberi); experiment: Test G Pre-Emergence Protocol; conditions: Setaria faberi, pre-emergence, 312 h, evaluated after 13 days; for pest or weed control at 15.625 g/ha: 15.625 g ai/ha; for pest or weed control at 15.625 g/ha / pest or weed control at 250 g/ha: read-out: Foxtail, Giant damage rating (100=total damage to plant; 0=no damage to plant); for pest or weed control at 62.5 g/ha: 62.5 g ai/ha, 100=total damage to plant, 0=no damage to plant, read-out: plant damage rating, Foxtail, Giant; for pest or weed control at 250 g/ha: 250 g ai/ha
# Outline: as §2
# corn (Zea mays) [9] = experiment: Test G Pre-Emergence Protocol; conditions: Zea mays, pre-emergence, 312 h, evaluated after 13 days; for plant injury at 15.625 g/ha: 15.625 g ai/ha; for plant injury at 15.625 g/ha / plant injury at 250 g/ha: read-out: Corn damage rating (100=total damage to plant; 0=no damage to plant); for plant injury at 62.5 g/ha: 62.5 g ai/ha, 100=total damage to plant, 0=no damage to plant, read-out: plant damage rating, Corn; for plant injury at 250 g/ha: 250 g ai/ha
# Outline: as §2
# [10] = system: redroot pigweed (Amaranthus retroflexus); experiment: Test G Pre-Emergence Protocol; conditions: Amaranthus retroflexus, pre-emergence, 312 h, evaluated after 13 days; for pest or weed control at 15.625 g/ha: 15.625 g ai/ha; for pest or weed control at 15.625 g/ha / pest or weed control at 250 g/ha: read-out: Pigweed, Redroot damage rating (100=total damage to plant; 0=no damage to plant); for pest or weed control at 62.5 g/ha: 62.5 g ai/ha, 100=total damage to plant, 0=no damage to plant, read-out: plant damage rating, Pigweed, Redroot; for pest or weed control at 250 g/ha: 250 g ai/ha
# Outline: as §2
# [11] = system: barnyardgrass (Echinochloa crus-galli); experiment: Test G Pre-Emergence Protocol; conditions: Echinochloa crus-galli, pre-emergence, 312 h, evaluated after 13 days; for pest or weed control at 15.625 g/ha: 15.625 g ai/ha, read-out: Barnyard grass damage rating (100=total damage to plant; 0=no damage to plant); for pest or weed control at 62.5 g/ha: 62.5 g ai/ha, 100=total damage to plant, 0=no damage to plant, read-out: plant damage rating, Barnyardgrass; for pest or weed control at 250 g/ha: 250 g ai/ha, read-out: Barnyardgrass damage rating (100=total damage to plant; 0=no damage to plant)
# Outline: as §2
# [12] = system: ivy-leaved morning glory (Ipomoea hederacea); experiment: Test G Pre-Emergence Protocol; conditions: Ipomoea, pre-emergence, 312 h, evaluated after 13 days; for pest or weed control at 15.625 g/ha: 15.625 g ai/ha, read-out: Morning-glory, Ivy-leaved damage rating (100=total damage to plant; 0=no damage to plant); for pest or weed control at 62.5 g/ha: 62.5 g ai/ha, 100=total damage to plant, 0=no damage to plant, read-out: plant damage rating, Morningglory, Ivy-leaved; for pest or weed control at 250 g/ha: 250 g ai/ha, read-out: Morningglory, Ivy-leaved damage rating (100=total damage to plant; 0=no damage to plant)
# Outline: as §2
SMILES,pest or weed control at 15.625 g/ha [1] [%],pest or weed control at 62.5 g/ha [1] [%],pest or weed control at 250 g/ha [1] [%],pest or weed control at 15.625 g/ha [2] [%],pest or weed control at 62.5 g/ha [2] [%],pest or weed control at 250 g/ha [2] [%],plant injury at 15.625 g/ha (corn (Zea mays) [3]) [%],plant injury at 62.5 g/ha (corn (Zea mays) [3]) [%],plant injury at 250 g/ha (corn (Zea mays) [3]) [%],pest or weed control at 15.625 g/ha [4] [%],pest or weed control at 62.5 g/ha [4] [%],pest or weed control at 250 g/ha [4] [%],pest or weed control at 15.625 g/ha [5] [%],pest or weed control at 62.5 g/ha [5] [%],pest or weed control at 250 g/ha [5] [%],pest or weed control at 15.625 g/ha [6] [%],pest or weed control at 62.5 g/ha [6] [%],pest or weed control at 250 g/ha [6] [%],pest or weed control at 15.625 g/ha [7] [%],pest or weed control at 62.5 g/ha [7] [%],further results
CN1C[C@@H](c2ccc(C(F)(F)F)cc2)[C@H](C(=O)Nc2ccsc2)C1=O (racemic) [Compound 1611],0,0,0,0,0,0,0,0,0,0,0,0,0,0,0,0,0,0,0,0,pest or weed control at 250 g/ha [7]: 0%; pest or weed control at 15.625 g/ha [8]: 0%; pest or weed control at 62.5 g/ha [8]: 0%; pest or weed control at 250 g/ha [8]: 0%; plant injury at 15.625 g/ha (corn (Zea mays) [9]): 0%; plant injury at 62.5 g/ha (corn (Zea mays) [9]): 0%; plant injury at 250 g/ha (corn (Zea mays) [9]): 0%; pest or weed control at 15.625 g/ha [10]: 0%; pest or weed control at 62.5 g/ha [10]: 0%; pest or weed control at 250 g/ha [10]: 0%; pest or weed control at 15.625 g/ha [11]: 0%; pest or weed control at 62.5 g/ha [11]: 0%; pest or weed control at 250 g/ha [11]: 0%; pest or weed control at 15.625 g/ha [12]: 0%; pest or weed control at 62.5 g/ha [12]: 0%; pest or weed control at 250 g/ha [12]: 0%
Cc1c(Cl)ncnc1NC(=O)[C@@H]1C(=O)N(C)C[C@H]1c1ccc(C(F)(F)F)cc1 (racemic) [Compound 1581],0,0,0,0,0,0,0,0,0,0,0,0,0,0,10,0,0,0,0,0,pest or weed control at 250 g/ha [7]: 0%; pest or weed control at 15.625 g/ha [8]: 0%; pest or weed control at 62.5 g/ha [8]: 0%; pest or weed control at 250 g/ha [8]: 0%; plant injury at 15.625 g/ha (corn (Zea mays) [9]): 0%; plant injury at 62.5 g/ha (corn (Zea mays) [9]): 0%; plant injury at 250 g/ha (corn (Zea mays) [9]): 0%; pest or weed control at 15.625 g/ha [10]: 0%; pest or weed control at 62.5 g/ha [10]: 0%; pest or weed control at 250 g/ha [10]: 0%; pest or weed control at 15.625 g/ha [11]: 0%; pest or weed control at 62.5 g/ha [11]: 0%; pest or weed control at 250 g/ha [11]: 0%; pest or weed control at 15.625 g/ha [12]: 0%; pest or weed control at 62.5 g/ha [12]: 0%; pest or weed control at 250 g/ha [12]: 0%
CN1C[C@@H](c2ccc(C(F)(F)F)cc2)[C@H](C(=O)Nc2nnc(C(F)(F)F)[nH]2)C1=O (racemic) [Compound 1550],0,0,0,0,0,0,0,10,30,0,30,40,0,0,0,0,0,0,0,0,pest or weed control at 250 g/ha [7]: 0%; pest or weed control at 15.625 g/ha [8]: 0%; pest or weed control at 62.5 g/ha [8]: 0%; pest or weed control at 250 g/ha [8]: 0%; plant injury at 15.625 g/ha (corn (Zea mays) [9]): 0%; plant injury at 62.5 g/ha (corn (Zea mays) [9]): 0%; plant injury at 250 g/ha (corn (Zea mays) [9]): 0%; pest or weed control at 15.625 g/ha [10]: 0%; pest or weed control at 62.5 g/ha [10]: 0%; pest or weed control at 250 g/ha [10]: 0%; pest or weed control at 15.625 g/ha [11]: 0%; pest or weed control at 62.5 g/ha [11]: 0%; pest or weed control at 250 g/ha [11]: 0%; pest or weed control at 15.625 g/ha [12]: 0%; pest or weed control at 62.5 g/ha [12]: 0%; pest or weed control at 250 g/ha [12]: 0%

# From US12077503B2, “Substituted cyclic amides and their use as herbicides” (FMC CORPORATION, priority 2015, dated 2024)
